Results reported in US5677336A, “Non-steroid androgen receptor antagonist compounds and methods” (Ligand Pharmaceuticals Incorporated, priority 1993, dated 1997).
Like-named read-outs stand apart in the source and are kept apart here.

Key:
[1] = Wall et al., J. Nat. Prod. 1989; cited from earlier work
[2] = tested on: progesterone receptor (PR-TI); experiment: Antagonist activity on progesterone receptor, CV-1 cells cotransfected with pRShPR-B altered at Tau-1 (PR-TI); format: cell-based, human; conditions: Table 2, CV-1 cells PR-TI; for Efficacy, PR-TI (% maximal response): comparable to that found with RU-486; for IC50: read-out: Potency, PR-TI (IC50)
Excerpt: (§1) In the co-transfection assay, a cloned gene for an intracellular receptor (e.g., androgen receptor) is introduced by transfection (a procedure to induce cells to take up foreign genes) into a background cell substantially devoid of endogenous intracellular receptors. This introduced gene directs the recipient cells to make the intracellular receptor protein. A second gene is also introduced (co-transfected) into the same cells in conjunction with the intracellular receptor gene. This second gene functions as a reporter for the transcription-modulating activity of the target intracellular receptor. Thus, the reporter acts as a surrogate for the products normally expressed by a gene under control of the target receptor and its natural hormone. A preferred reporter gene is one which expresses the firefly enzyme luciferase.
(§2) The co-transfection assay can detect small molecule agonists or antagonists of target intracellular receptors. Exposing the cells to an agonist ligand increases reporter activity in the transfected cells. This activity can be conveniently measured, e.g., by increasing luciferase production, which reflects ligand-dependent, intracellular receptor-mediated increases in reporter transcription. To detect antagonists, the co-transfection assay is carried out in the presence of a constant concentration of an agonist (e.g., for androgen receptor, dihydrotestosterone) known to induce a defined reporter signal. Increasing concentrations of a test antagonist will decrease the reporter signal (e.g., luciferase production). The co-transfection assay is therefore useful to detect both agonists and antagonists of specific intracellular receptors. It determines not only whether a compound interacts with a particular intracellular receptor, but whether this interaction mimics (agonizes) or blocks (antagonizes) the effects of the natural regulatory molecules on target gene expression, as well as the specificity and strength of this interaction.
(§3) Co-transfected cells are exposed to a medium to which is added the potential ligand (compound) that is being evaluated. If the candidate compound diffuses into the cell, binds to the receptor, and the resulting receptor complex functions as an agonist, it will subsequently bind to the co-transfected reporter gene and initiate transcription. Typically, the reporter gene is one that expresses luciferase, which is capable of catalyzing a light-emitting reaction with its substrate luciferin. Thus, after cell lysis and the introduction of luciferin, the amount of light produced relative to the concentration of candidate compound used in the assay provides a measure of the potency and efficacy of the compound tested. Antagonist activity is evaluated by adding the candidate ligand and a known agonist to the co-transfected cells.
The specific activity of Compounds A-J was compared relative to their antagonist activity on the human progesterone receptor (PR) utilizing CV-1 cells cotransfected with plasmid pRShPR-B, as altered at the Tau-1 location (e.g., PR-TI)[specifically, hPR-B was excised from the vector pGEM3Z (69 Cell 703 (1992)); the Tau-1 fragment of the gluccocorticoid receptor was inserted into hPR-B at the unique HincII site in the N-terminal region; a Bst EII to BST bI fragment spanning the Tau-1 insertion was then used to replace the corresponding region in pRShPR-B]. […] Potency or IC50 is as reported for AR-wt transfected CV-1 cells.

androgen receptor = target: T1, androgen receptor (Homo sapiens, UniProt P10275); experiment: Co-transfection androgen antagonist assay (CV-1 cells, pRShAR, MTV-LUC reporter; AR-wt); format: cell-based; conditions: for IC50: read-out: Potency (IC50, concentration required to reduce the maximal response by 50%)
T1 construct: expressed in transfected cells; host or cells: CV-1 (monkey kidney fibroblast) cells, plasmid pRShAR, with reporter plasmid MTV-LUC
T1 sequence (P10275 1-920): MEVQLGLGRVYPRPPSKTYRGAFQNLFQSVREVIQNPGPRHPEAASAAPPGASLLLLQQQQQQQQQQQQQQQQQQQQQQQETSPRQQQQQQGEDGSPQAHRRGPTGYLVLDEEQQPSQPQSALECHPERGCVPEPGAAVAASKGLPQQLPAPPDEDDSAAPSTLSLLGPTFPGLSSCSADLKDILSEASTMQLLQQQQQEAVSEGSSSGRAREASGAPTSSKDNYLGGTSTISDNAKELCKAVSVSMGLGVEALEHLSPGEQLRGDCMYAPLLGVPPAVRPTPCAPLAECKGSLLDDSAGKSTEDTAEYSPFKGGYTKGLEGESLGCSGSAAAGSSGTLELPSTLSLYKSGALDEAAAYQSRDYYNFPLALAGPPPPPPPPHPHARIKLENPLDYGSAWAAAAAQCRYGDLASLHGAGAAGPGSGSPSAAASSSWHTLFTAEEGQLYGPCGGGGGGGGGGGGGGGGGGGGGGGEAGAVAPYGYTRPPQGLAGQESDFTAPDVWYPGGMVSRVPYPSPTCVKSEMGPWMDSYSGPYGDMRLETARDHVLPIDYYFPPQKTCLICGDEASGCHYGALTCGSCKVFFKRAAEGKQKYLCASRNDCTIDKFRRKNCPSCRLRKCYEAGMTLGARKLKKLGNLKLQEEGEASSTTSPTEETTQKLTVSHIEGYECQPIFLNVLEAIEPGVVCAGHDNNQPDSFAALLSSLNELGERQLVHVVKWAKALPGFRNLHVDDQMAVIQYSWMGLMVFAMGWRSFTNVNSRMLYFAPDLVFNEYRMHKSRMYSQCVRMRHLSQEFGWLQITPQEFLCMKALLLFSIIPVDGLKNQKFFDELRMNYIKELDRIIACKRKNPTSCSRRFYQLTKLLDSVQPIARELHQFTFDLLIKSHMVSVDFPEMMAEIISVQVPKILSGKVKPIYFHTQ
Excerpt: The co-transfection assay provides a method for identifying functional ligands (either agonists which mimic, or antagonists which inhibit, the effect of hormones), and quantifying their activity for ligand-responsive receptor proteins. In this regard, the co-transfection assay mimics an in vivo system in the laboratory. Importantly, activity in the co-transfection assay correlates very well with known in vivo activity, such that the co-transfection assay functions as a quantitative predicator of a tested compounds in vivo pharmacology. See, e.g., T. Berger et al. 41 J. Steroid Biochem. Molec.
as §1, §2
as §3, with “cells. […]” for “cells.”

[3] = CV-1, Table 1, androgen antagonists, relative to 2-Hydroxy-flutamide, read-out: Efficacy (% maximal response relative to 2-Hydroxy-flutamide)
[4] = Table 2, CV-1 cells AR-wt, read-out: Efficacy, AR-wt

| IC50 [2] [nM] | Emax (androgen receptor; [3]) [%] | IC50 (androgen receptor; Table 1, androgen antagonists) [nM] | Emax (androgen receptor; [4]) [%] | Compound | antimutagenic activity [1] | Efficacy, PR-TI (% maximal response) [2] [%] |
| --- | --- | --- | --- | --- | --- | --- |
|  |  |  |  | CC1(C)[C@@H](Br)CC[C@@]2(C)Oc3cc(Br)c(O)cc3C[C@@H]12 [cymobarbatol] | highly active antimutagens |  |
|  |  |  |  | 4-isocymobarbatol | highly active antimutagens |  |
| 820 | 87 | 240 | 87 | C=C1C=CCC(C)(C)C1Cc1cc(OC)c(Br)cc1OC(C)=O (stereo not drawn) [F] |  | 53 |
| 3500 | 92 | 220 | 92 | C=C1CCCC(C)(C)C1Cc1ccccc1O (stereo not drawn) [D] |  | 73 |
